Results: publication PMC9822434, “Estradiol-Based Salicylaldehyde (Thio)Semicarbazones and Their Copper Complexes with Anticancer, Antibacterial and Antioxidant Activities” (Molecules, 2022)
Values after ≈ are worked out from the molar mass of the structure shown. Read-outs that look alike come from different tables or passages of the source. One block for each compound: values may come before it.

How the values were obtained:
MCF-7 = experiment: MTT cytotoxicity assay; assay type: cell-based, human; conditions: MCF-7, MTT; for IC50: 24 h incubation time; for effect on cell viability (in words): up to 20 µM, 24 h
Procedure: (§1) To test the biological effects of the Cu(II) complexes and the ligands on human cancer cells, DU-145 prostate, A549 lung, and MCF-7 breast adenocarcinoma cells, as well as the multidrug-resistant MCF-7 KCR breast cancer cells were utilized. All the cell lines were maintained in RPMI-1640 media (Biosera, Nuaille, France) complemented with 10% fetal bovine serum (FBS), 2 mM L-glutamine, 0.01% streptomycin and 0.005% penicillin, (Biosera, Nuaille, France) and were cultured under standard conditions in a 37 °C incubator at 5% CO2 and 95% humidity. The cell lines were originally obtained from ATCC.
(§2) The effect of the complexes and of their ligands alone on the viability (on the metabolic activity) of human cancer cells was assessed by MTT assay. The tested compounds were dissolved in 90% (v/v) DMSO/H2O at 10 mM concentration. Equimolar solutions of the ligand CuCl2 salt were used for the cytotoxicity assays. The metal salts without ligands were also tested. For this, 1 × 10^4 cells/well were seeded into 96-well plates and left to grow overnight. On the following day, cells were exposed to increasing concentrations of each compound (0; 2.5; 5; 10; 15; 20 µM). After a 24 h incubation, cells were washed with PBS buffer and then incubated with 0.5 mg/mL MTT (Sigma-Aldrich, St Louis, Missouri, MO, USA) for 1 h at 37 °C. The formazan crystals were solubilized in DMSO (Molar Chemicals, Halásztelek, Hungary), and the absorbance of samples was determined at 570 nm using a Synergy HTX plate reader (BioTek, Winooski, Vermont, VT, USA). Absorption corresponding to the untreated control samples was considered as 100%.

A549 = experiment: MTT cytotoxicity assay; assay type: cell-based, human; conditions: for IC50: 24 h incubation time; for effect on cell viability (in words): up to 20 µM, 24 h
Procedure: as §1, §2

DU-145 = experiment: MTT cytotoxicity assay; assay type: cell-based, human; conditions: DU-145, MTT; for IC50: 24 h incubation time; for effect on cell viability (in words): up to 20 µM, 24 h
Procedure: as §1, §2

MCF-7 KCR = experiment: MTT cytotoxicity assay; assay type: cell-based, human; conditions: for effect on cell viability (in words): up to 20 µM, 24 h
Procedure: as §1, §2

E. faecalis ATCC 29212 = experiment: MIC determination; assay type: cell-based, Enterococcus faecalis; conditions: Gram-positive E. faecalis ATCC 29212, Mueller Hinton Broth
Procedure: (§3) Klebsiella pneumoniae (ATCC 49619), Escherichia coli (ATCC 25922), Staphylococcus aureus (ATCC 25928) and Enterococcus faecalis (ATCC 29212) strains were used as Gram-negative and Gram-positive bacterial cultures. The stock solutions of the tested compounds (dissolved in 90% (v/v) DMSO/H2O at 10 mM concentration) were diluted in 100 μL of Mueller Hinton Broth, and then two-fold serial dilutions were performed. As a starting point, 100 μM concentration of the compounds was used. Then, 10^−4 dilution of an overnight bacterial culture in 100 μL of medium was added to each well, with the exception of the medium control wells. Minimum inhibitory concentration (MIC) values of compounds were determined according to our previous work.

[1] = system: A549, MCF-7, MCF-7 KCR and DU-145 cells; experiment: γH2AX immunostaining (DNA double-strand breaks); assay type: cell-based, human; conditions: 20 µM, 3 h
Procedure: In order to determine the degree of DNA damage induced by the treatments, DNA double-strand breaks were visualized by γH2AX immunostaining. For this, 1 × 10^5 cells/well were seeded onto coverslips in 24-well plates. […] Then, cells were fixed with 4% formaldehyde (Molar Chemicals, Halásztelek, Hungary), permeabilized with 0.3% Triton-X-100 (Calbiochem, Merck Millipore, Darmstadt, Germany) and were blocked using 5% bovine serum albumin (BSA) (Sigma-Aldrich, St. Louis, MO, USA). Then, the samples were incubated with anti-γH2AX antibody (Thermo Fisher Scientific, Waltham, MA, USA) in 1:300 dilution followed by Alexa 488 fluorophore-conjugated goat anti-mouse secondary antibody (Abcam, Cambridge, UK) in 1:600 dilution. The fluorescence intensity of the stained samples was detected by an Olympus FV10i confocal microscope.

S. aureus ATCC 25928 = experiment: MIC determination; assay type: cell-based, Staphylococcus aureus; conditions: Gram-positive S. aureus ATCC 25928, Mueller Hinton Broth
Procedure: as §3

[2] = direct redox reaction of the Cu(II) complexes with GSH (UV–vis, anaerobic); assay type: physicochemical; conditions: Cu(II) complex (25 µM) of the named ligand with GSH (1.25 mM), pH 7.4, anaerobic, 30% (v/v) DMSO/H2O, 25.0 °C
Procedure: The redox reaction of the Cu(II) complexes with GSH and ascorbic acid was studied at 25.0 ± 0.1 °C, at pH 7.40 (10 mM HEPES with 0.1 M KCl) on an Agilent Cary 8454 diode array spectrophotometer using a special, tightly closed tandem cuvette (Hellma Tandem Cell, 238-QS). The complex and the reducing agent were separated until the reaction was triggered. Both isolated pockets of the tandem cuvette were completely deoxygenated by bubbling argon for 10 min before mixing the reactants. Spectra were recorded before and then immediately after the mixing, and changes were followed till no further absorbance change was observed. The stock solutions of the reducing agents and the complexes were freshly prepared every day.
During the calculations, the absorbance (A)−time (t) curves were fitted and analyzed at the λmax of the complex. (A0 − Afinal) × e ^(−a×t) + Afinal equation was used where A0, Afinal and a parameters were refined and accepted at the minimal value of the weighted sum of squared residuals (difference between the measured and calculated absorbance values) at the given wavelength. Then observed rate constants (kobs) of the redox reaction were obtained from the data points of the simulated absorbance–time curves as the slope of the ln(A/A0) versus t plots.

[3] = assay type: physicochemical; conditions: for logβ [CuLH−1] / logβ [CuL]+: Cu(II) complex of the named ligand, 30% (v/v) DMSO/H2O, T = 25.0 °C, I = 0.1 M (KCl); for pCu5.0: calculated at pH 5.0, cCu(II) = 20 µM; for pCu5.0 / pCu6.0 / pCu7.4: cligand = 20 µM; for pCu6.0: estimated at pH 6.0, cCu(II) = 20 µM; for pCu7.4: estimated at pH 7.4, cCu(II) = 20 µM
Procedure: (§4) An Orion 710A pH-meter equipped with a Metrohm combined electrode (type 6.0234.100) and a Metrohm 665 Dosimat burette were used for the UV–vis titrations at 25.0 ± 0.1 °C. Ionic strength of 0.10 M (KCl) was used to keep the activity coefficients constant. The titrations were performed with carbonate-free KOH solution of known concentration (0.10 M) with 30% (v/v) DMSO content. […] The average water ionization constant (pKw) is 14.54 ± 0.05 in the 30% (v/v) DMSO/H2O mixture. Argon was always passed over the solutions during the titrations. An Agilent Cary 8454 diode array spectrophotometer was used to record the UV–vis spectra at an interval of 200–800 nm. The path length was 2 cm. Spectrophotometric titrations were performed using a 0.1 M KOH titrant solution with 30% (v/v) DMSO on samples with 30% (v/v) DMSO containing HCl, KCl and the ligand at 20 μM concentration in the pH range 2.0–12.5 in the absence or in the presence of 1 or 0.5 equiv. Cu(II) ions. Proton dissociation constants (Ka) of the TSC ligands, the overall stability constants (β) of the Cu(II) complexes and the UV–vis spectra of the individual species were calculated by the computer program PSEQUAD [41] as was done in our previous works.

[4] = system: HCT-116 colon cancer cell line; design: method as in doi:10.1039/D0NJ01070G, PMID 34453218, PMID 33951554; conditions: cited from earlier work
physchem = assay type: physicochemical
Procedure: as §4

[5] = cited from earlier work; for logβ [CuLH−1] / logβ [CuL]+: 30% (v/v) DMSO/H2O, T = 25.0 °C, I = 0.1 M (KCl); for pCu7.4: pH 7.4, cCu(II) = 20 µM, cligand = 20 µM
[6] = cited from earlier work
[7] = DPPH free radical scavenging assay; conditions: for % Scavenging Effect: DPPH:compound = 1:1 ratio after 30 min, ethanol; for IC50: in ethanol, T = 25 °C, cDPPH = 50 µM, ccompound = 5−50 µM
Procedure: The DPPH (Sigma-Aldrich) free radical scavenging capacity was studied at 25.0 ± 0.1 °C on an Agilent Cary 3500 spectrophotometer with tightly closed tandem cuvette according to our approach with some modifications. The stock solution of DPPH (100 µM) was prepared in ethanol, and 0.5 mL of this solution was added to one pocket of the cuvette and 0.5 mL of the tested compound in different concentrations in ethanol was added to another. The final concentration of the studied compounds was in the range 5–50 µM, where for DPPH concentration, it was always 50 µM. A standard compound Trolox (Sigma-Aldrich) was used as a positive control. The percentage of the antioxidant activity (AA), IC50 values (the concentration of compound at which it reduced 50% of DPPH) and Trolox equivalent antioxidant capacity (TEAC) were calculated.

[8] = Cu(II) complex (25 µM) with GSH (1.25 mM), pH 7.4, anaerobic; cited from earlier work

Structure (SMILES): [Cl][Cu][Cl] [CuCl2, reference compound]
IC50 (MCF-7): > 20 µM
effect on cell viability (in words) (MCF-7): No toxic effect
IC50 (A549): > 20 µM
effect on cell viability (in words) (A549): No toxic effect
IC50 (DU-145): > 20 µM
effect on cell viability (in words) (DU-145): No toxic effect
IC50 (MCF-7 KCR; 24 h incubation time): > 20 µM
effect on cell viability (in words) (MCF-7 KCR): No toxic effect
MIC (E. faecalis ATCC 29212): >100 µM
DNA double-strand breaks (γH2AX) vs untreated control cells [1]: None of these treatments caused a higher degree of DNA damage
MIC (S. aureus ATCC 25928): >100 µM

Structure (SMILES): NC(=O)N/N=C/c1ccccc1O [SSC]
pKa ([6]; salicylaldehyde SC): 9.30

Structure (SMILES): NC(=S)N/N=C/c1ccccc1O [STSC, salicylaldehyde TSC, reference compound]
pKa ([6]; salicylaldehyde TSC): 8.84
TEAC (Trolox equivalent antioxidant capacity) ([7]; DPPH assay in ethanol, 25 °C): 0.6
% Scavenging Effect ([7]; 25 °C): 23.4%
IC50 [7]: 19 µM

Structure (SMILES): C[C@]12CC[C@@H]3c4cc(C=NNC(N)=O)c(O)cc4CC[C@H]3[C@@H]1CCC2O (stereo partly drawn) [estradiol-SC, 2-[(3,17 Dihydroxy-estra-1,3,5(10)-triene-2-yl)methylene]Hydrazine-1-carboxamide]
IC50 (MCF-7; Homo sapiens, MCF7): > 20 µM
effect on cell viability (in words) (MCF-7): neither the estradiol-SC nor the Cu(II)-estradiol-SC complex exhibit any harmful effect
IC50 (A549; Homo sapiens): > 20 µM
effect on cell viability (in words) (A549): only slightly toxic
effect on cell viability (in words) (DU-145): neither the estradiol-SC nor the Cu(II)-estradiol-SC complex exhibit any harmful effect
IC50 (DU-145; Homo sapiens): > 20 µM
IC50 (MCF-7 KCR; Homo sapiens, MCF7, 24 h incubation time): > 20 µM
effect on cell viability (in words) (MCF-7 KCR): only slightly toxic
melting point: 238 °C
kobs [2]: fast reaction
MIC (E. faecalis ATCC 29212; Enterococcus faecalis, ATCC29212): > 100 µM
pKa [CuL]+ [3]: 6.48
logβ [CuLH−1] [3]: 5.16 ± 0.03
logβ [CuL]+ [3]: 11.63 ± 0.03
pCu5.0 [3]: 5.7
pCu6.0 [3]: 6.3
pCu7.4 [3]: 7.8
% Scavenging Effect ([7]; 25 °C): 6.5%
IC50 [7]: > 50 µM
MIC (S. aureus ATCC 25928): 50 µM (≈ 17.9 µg/mL)
MIC (S. aureus ATCC 25928; Staphylococcus aureus, ATCC25928): 50 µM (≈ 17.9 µg/mL)
pKa (physchem): 10.02 ± 0.03

Further lines, with some results ahead:

pKa [CuL]+ [3]: 3.92 ^4
logβ [CuLH−1] [3]: 9.44 ± 0.07 ^4
logβ [CuL]+ [3]: 13.36 ± 0.08 ^4
pCu5.0 [3]: 8.0
pCu6.0 [3]: 9.7
pCu7.4 [3]: 12.5 ^4
pKa (physchem): 9.02 ± 0.03 ^4
Structure (SMILES): CN(C)C(=S)NN=Cc1cc2c(cc1O)CCC1C2CCC2(C)C(=O)CCC12 (stereo not drawn) [Me2-estrone-TSC, reference compound]
kobs [2]: 0.05 ^4 min^−1
IC50 [4]: 21 µM

pCu5.0 [3]: 7.7
pCu6.0 [3]: 9.2
Structure (SMILES): CNC(=S)NN=Cc1cc2c(cc1O)CCC1C2CCC2(C)C(=O)CCC12 (stereo not drawn) [Me-estrone-TSC]
kobs [2]: 0.05 ^4 min^−1
logβ [CuLH−1] [5]: 9.66 ^3
logβ [CuL]+ [5]: 13.64 ^3
pCu7.4 [5]: 11.9 ^3
IC50 [4]: 25 µM

pCu5.0 [3]: 5.8
pCu6.0 [3]: 6.3
Structure (SMILES): CC12CCC3c4cc(C=NNC(N)=O)c(O)cc4CCC3C1CCC2=O (stereo not drawn) [estrone-SC]
kobs [8]: fast reaction ^1
logβ [CuLH−1] [5]: 4.82 ^1
logβ [CuL]+ [5]: 11.26 ^1
pCu7.4 [5]: 7.5 ^1
